Earlier results as cited in US9498462B2, “Doxepin trans isomers and isomeric mixtures and methods of using the same to treat sleep disorders” (Pernix Sleep Inc., priority 2006, dated 2016).

Assays:
melatonin MT1 receptor = melatonin MT1 receptor (Homo sapiens, UniProt P48039)
melatonin MT2 receptor = biological target: T1, melatonin MT2 receptor (Homo sapiens, UniProt P49286)
T1 sequence (P49286 1-362): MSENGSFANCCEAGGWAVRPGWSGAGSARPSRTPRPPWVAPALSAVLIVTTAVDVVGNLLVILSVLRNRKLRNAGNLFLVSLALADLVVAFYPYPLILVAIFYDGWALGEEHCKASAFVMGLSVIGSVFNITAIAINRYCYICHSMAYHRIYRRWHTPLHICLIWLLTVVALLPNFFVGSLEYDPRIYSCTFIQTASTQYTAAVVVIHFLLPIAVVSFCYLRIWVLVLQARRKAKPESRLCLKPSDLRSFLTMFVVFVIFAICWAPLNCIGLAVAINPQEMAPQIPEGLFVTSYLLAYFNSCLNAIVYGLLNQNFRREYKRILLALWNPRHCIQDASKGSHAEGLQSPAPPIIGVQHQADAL

Sequence of melatonin MT1 receptor (P48039 whole entry): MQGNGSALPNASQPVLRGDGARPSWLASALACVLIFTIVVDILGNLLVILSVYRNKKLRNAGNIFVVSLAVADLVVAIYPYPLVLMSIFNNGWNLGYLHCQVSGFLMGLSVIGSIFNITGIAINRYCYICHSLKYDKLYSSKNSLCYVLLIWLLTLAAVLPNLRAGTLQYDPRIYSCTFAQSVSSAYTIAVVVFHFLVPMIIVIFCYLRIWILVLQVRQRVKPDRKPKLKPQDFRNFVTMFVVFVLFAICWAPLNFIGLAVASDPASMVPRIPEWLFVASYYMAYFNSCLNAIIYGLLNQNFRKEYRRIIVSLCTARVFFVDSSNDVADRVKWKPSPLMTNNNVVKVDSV

affinity for melatonin MT1 receptor (melatonin MT1 receptor): high affinity | affinity for melatonin MT2 receptor (melatonin MT2 receptor): high affinity
SMILES: CCC(=O)NCC[C@@H]1CCc2ccc3c(c21)CCO3 [Ramelteon, (S)—N-[2-(1,6,7,8-tetrahydro-2H-indeno-[5,4-b]furan-8-yl)ethyl]propionamide]
